Consider 17 compounds from patent EP0350163A2, “Renin inhibitory peptides” (BEECHAM GROUP PLC, priority 1988, dated 1990).

Where a name gives a salt, the structure may show the parent alone.

For this assay, the target named is T1, human renin (Homo sapiens, UniProt P00797).
T1 construct: from tissue; host or cells: human plasma from the blood of healthy volunteers
T1 sequence (P00797 67-406): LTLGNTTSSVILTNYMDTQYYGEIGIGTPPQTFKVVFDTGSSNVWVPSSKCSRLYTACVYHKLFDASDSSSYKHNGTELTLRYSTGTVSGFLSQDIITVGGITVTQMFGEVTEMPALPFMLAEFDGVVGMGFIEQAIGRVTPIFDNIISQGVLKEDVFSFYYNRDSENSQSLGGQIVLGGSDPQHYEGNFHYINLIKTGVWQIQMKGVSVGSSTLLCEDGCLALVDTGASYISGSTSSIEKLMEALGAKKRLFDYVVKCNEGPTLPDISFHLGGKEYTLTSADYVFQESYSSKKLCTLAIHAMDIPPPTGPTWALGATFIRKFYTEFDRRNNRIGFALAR
Description: In vitro human renin inhibition (renin activity in human plasma, angiotensin I radioimmunoassay). It counts as biochemical. The following applies: human plasma from healthy volunteers; angiotensin I difference between 37° and 4° for 2 h; linear regression of at least three concentrations; read-out: IC₅₀. On the procedure:
Renin inhibitory activity was estimated as the percentage change in renin activity in human plasma in the presence and absence of compound. The source of plasma was blood taken from healthy volunteers. Renin activity was defined by the difference in angiotensin I levels between two halves of a sample, one incubated at 37^o and the other at 4^o for 2 h. Angiotensin I levels were measured using a ¹²⁵I- angiotensin I radioimmunoassay kit (NEN/DuPont, Stevenage). Results were calculated as the mean of at least two, duplicate determinations and IC₅₀ values were calculated by linear regression analysis of at least three concentrations of compound.

For the compound `COc1cccc2c1OCC2CC(=O)N[C@@H](Cc1ccccc1)C(=O)N[C@@H](CC(C)C)C(=O)N[C@@H](CC1CCCCC1)[C@@H](O)CC(=O)NCC(C)C` (stereo partly drawn) [E 3, 4-(S)-((7-Methoxy-2,3-dihydrobenzofuran-3-yl)acetyl-(S)-phenylalanyl-(S)-leucyl)amino-5-cyclohexyl-3-(S)-hydroxypentanoic acid isobutylamide hemihydrate], the IC50 stood at 50 nM. Consider `CC(C)CNC(=O)C[C@H](O)[C@H](CC1CCCCC1)NC(=O)[C@H](CC(C)C)NC(=O)[C@H](Cc1ccccc1)NC(=O)CC1COc2ccc([N+](=O)[O-])cc21` (stereo partly drawn) [E 5, 4-(S)-((5-Nitro-2,3-dihydrobenzofuran-3-yl)acetyl-(S)-phenylalanyl-(S)-leucyl)amino-5-cyclohexyl-3-(S)-hydroxypentanoic acid isobutylamide hemihydrate], for which the IC50 is 60 nM. Next, `CC(C)CNC(=O)C[C@H](O)[C@H](CC1CCCCC1)NC(=O)[C@H](CC(C)C)NC(=O)[C@H](Cc1ccccc1)NC(=O)CC1COc2ccc(N)cc21` (stereo partly drawn) [E 6, 4-(S)-((5-Amino-2,3-dihydrobenzofuran-3-yl)acetyl-(S)-phenylalanyl-(S)-leucyl)amino-5-cyclohexyl-3-(S)-hydroxypentanoic acid isobutylamide trifluoroacetate hemihydrate]: 30 nM; `CC(C)CNC(=O)C[C@H](O)[C@H](CC1CCCCC1)NC(=O)[C@H](CC(C)C)NC(=O)[C@H](Cc1ccccc1)NC(=O)CC1COc2ccc(NC(N)=O)cc21` (stereo partly drawn) [E 7, 4-(S)-((5-Ureido-2,3-dihydrobenzofuran-3-yl)acetyl-(S)-phenylalanyl-(S)-leucyl)amino-5-cyclohexyl-3-(S)-hydroxypentanoic acid isobutylamide dihydrate]: 50 nM. For the compound `CNS(=O)(=O)c1ccc2c(c1)C(CC(=O)N[C@@H](Cc1ccccc1)C(=O)N[C@@H](CC(C)C)C(=O)N[C@@H](CC1CCCCC1)[C@@H](O)CC(=O)NCC(C)C)CO2` (stereo partly drawn) [E 9, 4 (S)-((5-(Methylaminosulphonyl)-2,3-dihydrobenzofuran-3-yl)acetyl-(S)-phenylalanyl-(S)-leucyl)amino-5-cyclohexyl-3-(S)-hydroxypentanoic acid isobutylamide], the IC50 was 50 nM. Next, `CC(C)CNC(=O)C[C@H](O)[C@H](CC1CCCCC1)NC(=O)[C@H](CC(C)C)NC(=O)[C@H](Cc1ccccc1)NC(=O)CC1CS(=O)(=O)c2ccccc21` (stereo partly drawn) [Example E12, 4-(S)-((2,3-Dihydro-1,1-dioxobenzothiophene-3-yl)acetyl-(S)-phenylalanyl-(S)-leucyl)amino-5-cyclohexyl-3-(S)-hydroxypentanoic acid isobutylamide]: 10 nM.

`CC(C)CNC(=O)C[C@H](O)[C@H](CC1CCCCC1)NC(=O)[C@H](CC(C)C)NC(=O)[C@H](Cc1ccccc1)NC(=O)CC1COc2ccc(CN)cc21` (stereo partly drawn) [Example E20a, 4-(S)-((5-(Aminomethyl)-2,3-dihydrobenzofuran-3-yl)acetyl-(S)-phenylalanyl-(S)-leucyl)amino-5-cyclohexyl-3-(S)-hydroxypentanoic acid isobutylamide hemi(trichloromethanate)]: the IC50 is 30 nM. Next, `CC(C)CNC(=O)C[C@H](O)[C@H](CC1CCCCC1)NC(=O)[C@H](Cc1cnc[nH]1)NC(=O)[C@H](Cc1ccccc1)NC(=O)CC1COc2ccc(C(=O)OCc3ccccc3)cc21` (stereo partly drawn) [Example E23, 4-(S)-((5-Benzyloxycarbonyl)-2,3-dihydrobenzofuran-3-yl)acetyl-(S)-phenylalanyl-(S)-histidyl)amino-5-cyclohexyl-3-(S)-hydroxypentanoic acid isobutylamide hemihydrate]: 470 nM; `CC(C)CNC(=O)C[C@H](O)[C@H](CC1CCCCC1)NC(=O)[C@H](CC(C)C)NC(=O)[C@H](Cc1ccccc1)NC(=O)CC1CS(=O)(=O)c2cc(N)ccc21` (stereo partly drawn) [Example E29, 4-(S)-((6-Amino-2,3-dihydro-1,1-dioxobenzothiophene-3-yl)acetyl-(S)-phenylalanyl-(S)-leucyl)amino-5-cyclohexyl-3-(S)-hydroxypentanoic acid isobutylamide dihydrate]: 10 nM. Next, `CC(C)CNC(=O)C[C@H](O)[C@H](CC1CCCCC1)NC(=O)[C@H](CC(C)C)NC(=O)[C@H](Cc1ccccc1)NC(=O)CC1CS(=O)(=O)c2cc(CN)ccc21` (stereo partly drawn) [Example E31a, 4-(S)-((6-Aminomethyl-2,3-dihydro-1,1-dioxobenzothiophene-3-yl)acetyl-(S)-phenylalanyl-(S)-leucyl)amino-5-cyclohexyl-3-(S)-hydroxypentanoic acid isobutylamide dihydrate]: 8 nM; `CC(C)CNC(=O)C[C@H](O)[C@H](CC1CCCCC1)NC(=O)[C@H](CC(C)C)NC(=O)[C@H](Cc1ccccc1)NC(=O)CC1COc2ccc(CNCC(=O)O)cc21` (stereo partly drawn) [Example E36a, 4-(S)-((5-(Carboxymethylaminomethyl)-2,3-dihydrobenzofuran-3-yl)acetyl-(S)-phenylalanyl-(S)-leucyl)amino-5-cyclohexyl-3-(S)-hydroxvoentanoic acid isobutylamide]: 100 nM; `CC(C)CNC(=O)C[C@H](O)[C@H](CC1CCCCC1)NC(=O)[C@H](Cc1c[nH]cn1)NC(=O)[C@H](Cc1ccccc1)NC(=O)CC1COc2ccc([N+](=O)[O-])cc21` (stereo partly drawn) [Example E39, 4-(S)-((5-Nitro-2,3-dihydrobenzofuran-3-yl)acetyl-(S)-phenylalanyl-(S)-histidyl)amino-5-cyclohexyl-3-(S)-hydroxypentanoic acid isobutylamide hydrate]: 40 nM. Next, `CC(C)CNC(=O)C[C@H](O)[C@H](CC1CCCCC1)NC(=O)[C@H](CC(C)C)NC(=O)[C@H](Cc1ccccc1)NC(=O)CC1COc2ccc(S(=O)(=O)CC(=O)OC(C)(C)C)cc21` (stereo partly drawn) [Example E43, 4-(S)-((5-(tert-Butoxycarbonylmethanesulphonyl)-2,3-dihydrobenzofuran-3-yl)acetyl)-(S)-phenylalanyl-(S)-leucyl)amino-5-cyclohexyl-3-(S)-hydroxypentanoic acid isobutylamide hemihydrate]: 8 nM; `CC(C)CNC(=O)C[C@H](O)[C@H](CC1CCCCC1)NC(=O)[C@H](CC(C)C)NC(=O)[C@H](Cc1ccccc1)NC(=O)CC1CS(=O)(=O)c2ccc(C#N)cc21` (stereo partly drawn) [Example E45, 4-(S)-((5-Cyano-2,3-dihydro-1,1-dioxobenzothiophene-3-yl)acetyl-(S)-phenylalanyl-(S)-leucyl)amino-5-cyclohexyl-3-(S)-hydroxypentanoic acid isobutylamide]: 9 nM; `CC(C)CNC(=O)C[C@H](O)[C@H](CC1CCCCC1)NC(=O)[C@H](CC(C)C)NC(=O)[C@H](Cc1ccccc1)NC(=O)CC1CS(=O)(=O)c2ccc(CN)cc21` (stereo partly drawn) [Example E50, 4-(S)-((5-Aminomethyl-2,3-dihydro-1,1-dioxobenzothiophene-3-yl)acetyl-(S)-phenylalanyl-(S)-leucyl)amino-5-cyclohexyl-3-(S)-hydroxypentanoic acid isobutylamide]: 10 nM.

With `CC(C)CNC(=O)C[C@H](O)[C@H](CC1CCCCC1)NC(=O)[C@H](CC(C)C)NC(=O)[C@H](Cc1ccccc1)NC(=O)CC1COc2ccc(S(=O)(=O)CC(=O)O)cc21` (stereo partly drawn) [Example E56, 4-(S)-((5-(Carboxymethanesulphonyl)-2,3-dihydrobenzofuran-3-yl)acetyl-(S)-phenylalanyl-(S)-leucyl)amino-5-cyclohexyl-3-(S)-hydroxypentanoic acid isobutylamide, sodium salt], the IC50 was found to be 60 nM. `CC(C)CNC(=O)C[C@H](O)[C@H](CC1CCCCC1)NC(=O)[C@H](Cc1cnc[nH]1)NC(=O)[C@H](Cc1ccccc1)NC(=O)CC1CS(=O)(=O)c2cc(CN)ccc21` (stereo partly drawn) [Example E60, 4-(S)-((6-Aminomethyl-2,3-dihydro-1,1-dioxobenzothiophene-3-yl)acetyl-(S)-phenylalanyl-(S)-histidyl)amino-5-cyclohexyl-3-(S)-hydroxypentanoic acid isobutylamide bis(trifluoroacetate) sesquihydrate]: the IC50 was determined as 40 nM.
